Structures are written as SMILES.

The first assay deals with T1, histamine H4 receptor (Homo sapiens, UniProt Q9H3N8).
T1 construct: expressed in transfected cells; host or cells: HEK293SFM cells (membrane preparation)
T1 sequence (Q9H3N8 whole entry): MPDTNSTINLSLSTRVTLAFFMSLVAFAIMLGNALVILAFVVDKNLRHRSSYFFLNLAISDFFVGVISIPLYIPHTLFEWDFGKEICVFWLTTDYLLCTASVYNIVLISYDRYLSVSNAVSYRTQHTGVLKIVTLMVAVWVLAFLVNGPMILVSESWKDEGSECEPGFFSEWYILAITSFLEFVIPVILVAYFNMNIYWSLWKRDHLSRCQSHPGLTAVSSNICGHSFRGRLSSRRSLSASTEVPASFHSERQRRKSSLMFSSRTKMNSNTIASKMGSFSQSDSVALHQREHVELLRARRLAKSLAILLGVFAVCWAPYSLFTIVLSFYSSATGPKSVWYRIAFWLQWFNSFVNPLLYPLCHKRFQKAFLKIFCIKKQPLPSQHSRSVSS
The assay can be described thus: Inhibition of histamine H4 receptor (Table A1; H4 membrane binding assay).
Conditions: not given
How it is done:
Recombinant HEK293SFM cells expressing human H1, H2, H3, H4 or mouse H4 were harvested (Packard Filtermate Harvester) in ice-cold Tris-HCl, (50 mM, pH 7.5, Sigma) with protease inhibitors (Roche) and homogenized with a Polytron homogenizer. The homogenate was centrifuged for 5 minutes at 1000 g to remove nuclei and unbroken cells. The supernatant was centrifuged at 50000 g for 30 minutes, and the resulting pellet was re-suspended in ice-cold Tris-HCl (50 mM, pH 7.5). […] Nonspecific binding was determined by inclusion of 1000× unlabeled ligands. The bound radioactivity was separated by filtration through polyethyleneimine-treated GF/B filters (Perkin Elmer). The filters were washed eight times with ice-cold Tris-HCl (50 mM, pH 7.5), and radioactivity retained on the filters was measured by liquid scintillation counting. The binding data were evaluated with Prism. […]
In the case of `CC1Cc2ccc(-c3ccn(CC#N)n3)cc2CN1c1cc(N2CCN(C)CC2)nc(N)n1` (single isomer, unassigned) [Example 82B, (3-{2-[2-Amino-6-(4-methylpiperazin-1-yl)pyrimidin-4-yl]-3-methyl-1,2,3,4-tetrahydroisoquinolin-7-yl}-1H-pyrazol-1-yl)acetonitrile], testing at 1 µM gave an inhibition of 66%.

As to `CC1Cc2ccc(-c3ccn(CCC#N)n3)cc2CN1c1cc(N2CCN(C)CC2)nc(N)n1` (single isomer, unassigned) [Example 83B, 3-(3-{2-[2-Amino-6-(4-methylpiperazin-1-yl)pyrimidin-4-yl]-3-methyl-1,2,3,4-tetrahydroisoquinolin-7-yl}-1,1-pyrazol-1-yl)propanenitrile], 1 µM produced 61% inhibition. Regarding `CC1Cc2ccc(-c3ccn(CCO)n3)cc2CN1c1cc(N2CCN(C)CC2)nc(N)n1` (single isomer, unassigned) [Example 84B, 2-(3-{2-[2-Amino-6-(4-methylpiperazin-1-yl)pyrimidin-4-yl]-3-methyl-1,2,3,4-tetrahydroisoquinolin-7-yl}-1H-pyrazol-1-yl)ethanol], the inhibition – broadly, the percentage by which the read-out fell short of the control – at 1 µM worked out at 52%. For `CNC(=O)c1cc(-c2ccc3c(c2)CN(c2cc(N4CCN(C)CC4)nc(N)n2)C(C)C3)cn1C` (single isomer, unassigned) [Example 87B, 4-{2-[2-Amino-6-(4-methylpiperazin-1-yl)pyrimidin-4-yl]-3-methyl-1,2,3,4-tetrahydroisoquinolin-7-yl}-N,1-dimethyl-1H-pyrrole-2-carboxamide], at 1 µM the inhibition was 69%.

Molecule `CCNC(=O)c1cc(-c2ccc3c(c2)CN(c2cc(N4CCN(C)CC4)nc(N)n2)C(C)C3)cn1C` (single isomer, unassigned) [Example 88B, 4-{2-[2-Amino-6-(4-methylpiperazin-1-yl)pyrimidin-4-yl]-3-methyl-1,2,3,4-tetrahydroisoquinolin-7-yl}-N-ethyl-1-methyl-1H-pyrrole-2-carboxamide] showed an inhibition at 1 µM of 74%. As for `CC1Cc2ccc(-c3cc(C(=O)N(C)C)n(C)c3)cc2CN1c1cc(N2CCN(C)CC2)nc(N)n1` (single isomer, unassigned) [Example 89B, 4-{2-[2-Amino-6-(4-methylpiperazin-1-yl)pyrimidin-4-yl]-3-methyl-1,2,3,4-tetrahydroisoquinolin-7-yl}-N,1N,1-trimethyl-1H-pyrrole-2-carboxamide], the inhibition at 1 µM was 67%. The molecule `CC(C)NC(=O)c1cc(-c2ccc3c(c2)CN(c2cc(N4CCN(C)CC4)nc(N)n2)C(C)C3)cn1C` (single isomer, unassigned) [Example 90B, 4-{2-[2-Amino-6-(4-methylpiperazin-1-yl)pyrimidin-4-yl]-3-methyl-1,2,3,4-tetrahydroisoquinolin-7-yl}-N-isopropyl-1-methyl-1H-pyrrole-2-carboxamide] returned an inhibition at 1 µM of 72%. Molecule `CC1Cc2ccc(-c3cc(C(=O)NC4CC4)n(C)c3)cc2CN1c1cc(N2CCN(C)CC2)nc(N)n1` (single isomer, unassigned) [Example 91B, 4-{2-[2-Amino-6-(4-methylpiperazin-1-yl)pyrimidin-4-yl]-3-methyl-1,2,3,4-tetrahydroisoquinolin-7-yl}-N-cyclopropyl-1-methyl-1H-pyrrole-2-carboxamide] gave an inhibition at 1 µM of 76%.

Still in this assay, the particulars now being: histamine H4 receptor; "> a" = exceeds experiment limit.
Turning to `CC1Cc2ccc(-c3cnc(C(=O)N4CC(O)C4)nc3)cc2CN1c1cc(N2CCN(C)CC2)nc(N)n1` (single isomer, unassigned) [Example 78, 1-[(5-{2-[2-Amino-6-(4-methylpiperazin-1-yl)pyrimidin-4-yl]-3-methyl-1,2,3,4-tetrahydroisoquinolin-7-yl}pyrimidin-2-yl)carbonyl]azetidin-3-ol], the half-inhibitory concentration (IC50) – broadly, the concentration at which inhibition is half-maximal – is 135 nM.

The molecule `CNC(=O)c1ccc(-c2ccc3c(c2)CN(c2cc(N4CCN(C)CC4)nc(N)n2)C(CO)C3)cn1` (single isomer, unassigned) [Example 81A, 5-[2-[2-amino-6-(4-methylpiperazin-1-yl)pyrimidin-4-yl]-3-(hydroxymethyl)-1,2,3,4-tetrahydroisoquinolin-7-yl]-N-methylpyridine-2-carboxamide] displayed an IC50 of 75 nM. Consider `CNC(=O)c1ccc(-c2ccc3c(c2)CN(c2cc(N4CCN(C)CC4)nc(N)n2)C(CO)C3)cn1` (single isomer, unassigned) [Example 81B, 5-[2-[2-amino-6-(4-methylpiperazin-1-yl)pyrimidin-4-yl]-3-(hydroxymethyl)-1,2,3,4-tetrahydroisoquinolin-7-yl]-N-methylpyridine-2-carboxamide], for which the IC50 worked out at 34 nM. The same measure, in the same setting: then `CC1Cc2ccc(-c3ccn(CC#N)n3)cc2CN1c1cc(N2CCN(C)CC2)nc(N)n1` (single isomer, unassigned) [Example 82A, (3-{2-[2-Amino-6-(4-methylpiperazin-1-yl)pyrimidin-4-yl]-3-methyl-1,2,3,4-tetrahydroisoquinolin-7-yl}-1H-pyrazol-1-yl)acetonitrile], with 22 nM.

Regarding `CC1Cc2ccc(-c3ccn(CCC#N)n3)cc2CN1c1cc(N2CCN(C)CC2)nc(N)n1` (single isomer, unassigned) [Example 83A, 3-(3-{2-[2-Amino-6-(4-methylpiperazin-1-yl)pyrimidin-4-yl]-3-methyl-1,2,3,4-tetrahydroisoquinolin-7-yl}-1H-pyrazol-1-yl)propanenitrile], the IC50 is 33 nM. In the case of `CC1Cc2ccc(-c3ccn(CCO)n3)cc2CN1c1cc(N2CCN(C)CC2)nc(N)n1` (single isomer, unassigned) [Example 84A, 2-(3-{2-[2-Amino-6-(4-methylpiperazin-1-yl)pyrimidin-4-yl]-3-methyl-1,2,3,4-tetrahydroisoquinolin-7-yl}-1H-pyrazol-1-yl)ethanol], the 50% inhibitory concentration (IC50) came out at 30 nM. Molecule `CC1Cc2ccc(-c3ccn(C)n3)cc2CN1c1cc(N2CCN(C)CC2)nc(N)n1` (single isomer, unassigned) [Example 85A, 4-[3-Methyl-7-(1-methyl-1H-pyrazol-3-yl)-3,4-dihydroisoquinolin-2(1H)-yl]-6-(4-methylpiperazin-1-yl)pyrimidin-2-amine] returned an IC50 of 20 nM.

`CC1Cc2ccc(-c3ccn(C)n3)cc2CN1c1cc(N2CCN(C)CC2)nc(N)n1` (single isomer, unassigned) [Example 85B, 4-[3-Methyl-7-(1-methyl-1H-pyrazol-3-yl)-3,4-dihydroisoquinolin-2(1H)-yl]-6-(4-methylpiperazin-1-yl)pyrimidin-2-amine] registered an IC50 of 104 nM. For the molecule `CCn1ccc(-c2ccc3c(c2)CN(c2cc(N4CCN(C)CC4)nc(N)n2)C(C)C3)n1` (single isomer, unassigned) [Example 86A, 4-[7-(1-Ethyl-1H-pyrazol-3-yl)-3-methyl-3,4-dihydroisoquinolin-2(1H)-yl]-6-(4-methylpiperazin-1-yl)pyrimidin-2-amine], the IC50 was found to be 40 nM. `CCn1ccc(-c2ccc3c(c2)CN(c2cc(N4CCN(C)CC4)nc(N)n2)C(C)C3)n1` (single isomer, unassigned) [Example 86B, 4-[7-(1-Ethyl-1H-pyrazol-3-yl)-3-methyl-3,4-dihydroisoquinolin-2(1H)-yl]-6-(4-methylpiperazin-1-yl)pyrimidin-2-amine]: the IC50 was 231 nM.

`CNC(=O)c1cc(-c2ccc3c(c2)CN(c2cc(N4CCN(C)CC4)nc(N)n2)C(C)C3)cn1C` (single isomer, unassigned) [Example 87A, 4-{2-[2-Amino-6-(4-methylpiperazin-1-yl)pyrimidin-4-yl]-3-methyl-1,2,3,4-tetrahydroisoquinolin-7-yl}-N,1-dimethyl-1H-pyrrole-2-carboxamide] showed an IC50 of 26 nM.

Regarding `CCNC(=O)c1cc(-c2ccc3c(c2)CN(c2cc(N4CCN(C)CC4)nc(N)n2)C(C)C3)cn1C` (single isomer, unassigned) [Example 88A, 4-{2-[2-Amino-6-(4-methylpiperazin-1-yl)pyrimidin-4-yl]-3-methyl-1,2,3,4-tetrahydroisoquinolin-7-yl}-N-ethyl-1-methyl-1H-pyrrole-2-carboxamide], the IC50 came to 25 nM. Same read-out and setting: then `CC1Cc2ccc(-c3cc(C(=O)N(C)C)n(C)c3)cc2CN1c1cc(N2CCN(C)CC2)nc(N)n1` (single isomer, unassigned) [Example 89A, 4-{2-[2-Amino-6-(4-methylpiperazin-1-yl)pyrimidin-4-yl]-3-methyl-1,2,3,4-tetrahydroisoquinolin-7-yl}-N,1N,1-trimethyl-1H-pyrrole-2-carboxamide], with 26 nM. The same measure, in the same setting: as for `CC(C)NC(=O)c1cc(-c2ccc3c(c2)CN(c2cc(N4CCN(C)CC4)nc(N)n2)C(C)C3)cn1C` (single isomer, unassigned) [Example 90A, 4-{2-[2-Amino-6-(4-methylpiperazin-1-yl)pyrimidin-4-yl]-3-methyl-1,2,3,4-tetrahydroisoquinolin-7-yl}-N-isopropyl-1-methyl-1H-pyrrole-2-carboxamide], the figure is 66 nM; as for `CC1Cc2ccc(-c3cc(C(=O)NC4CC4)n(C)c3)cc2CN1c1cc(N2CCN(C)CC2)nc(N)n1` (single isomer, unassigned) [Example 91A, 4-{2-[2-Amino-6-(4-methylpiperazin-1-yl)pyrimidin-4-yl]-3-methyl-1,2,3,4-tetrahydroisoquinolin-7-yl}-N-cyclopropyl-1-methyl-1H-pyrrole-2-carboxamide], 49 nM. The same measure, in the same setting: as for `CC1Cc2ccc(-c3cc(C(=O)N4CCC4)n(C)c3)cc2CN1c1cc(N2CCN(C)CC2)nc(N)n1` (single isomer, unassigned) [Example 92A, 4-[7-[5-(azetidin-1-ylcarbonyl)-1-methyl-1H-pyrrol-3-yl]-3-methyl-3,4-dihydroisoquinolin-2(1H)-yl]-6-(4-methylpiperazin-1-yl)pyrimidin-2-amine], the figure is 25 nM.

Source of the values: US20130244999A1, “Substituted Heterocyclic Compounds” (Incyte Corporation, priority 2008, published 2013).
